Test results reported in PMC10487708, “Chlorin E6-Curcumin-Mediated Photodynamic Therapy Promotes an Anti-Photoaging Effect in UVB-Irradiated Fibroblasts” (International Journal of Molecular Sciences, 2023).

Experiments:
BALB/c 3T3 cells = assay: MTT cytotoxicity of Ce6-curcumin derivative PDT in BALB/c 3T3 cells; type: cell-based, mouse; details: Mus musculus, BALB/c3T3, light or radiation study; 3 h treatment, 660 nm 20 J/cm^2, MTT after 24 h; read-out: IC50 BALB/c 3T3 cell viability
Procedure: MTT assay was used to evaluate viability after 24 h. IC50 values were calculated using GraphPad Prism 5 software.
Hs68 and BALB/c 3T3 cell viability was measured using a 3-[4,5-dimethylthylthiazol-2-yl]-2,5 diphenyl tetrazolium bromide (MTT) assay. The cells were cultured in 24-well plates at a density of 3 × 10^4 cells per well or BALB/c 3T3 cells at a density of 1 × 10^4 cells per well. […] The Hs68 cells were then exposed to LED light (660 nm; 89 W/m^2; 20 J/cm^2) for 37 min 27 s and incubated for 3 h. […] The cells were washed and treated with MTT, after which the plates were incubated at 37 °C in the dark for 2 h. After the formation of formazan, 100 µL of DMSO was added, and the absorbance was measured at 570 nm using a microtiter plate reader (Thermo-scientific, Skanlt software 5.0, Waltham, MA, USA)

COX-2, TNF-α, iNOS = assay: Western blot of COX-2, TNF-α and iNOS in UVB-induced 3T3 fibroblasts; type: cell-based, mouse; details: for UVB-upregulated COX-2 and TNF-α protein levels: fibroblast cells
From the text: We further investigated the expressions of COX-2, TNF-α, and MMP-1 to ascertain the effect of UVB on the expressions of NF-κB and AP-1-dependent genes. These genes have an NF-κB and AP-1 functional binding site in their promoter regions and are linked to inflammation.
Figure 10 Effect of Ce6-curcumin derivatives-PDT on UVB-induced COX-2 and iNOS expressions. […] Representative bars are expressed as mean only.
(§1) The cells were lysed with RIPA lysis buffer containing protease inhibitor cocktails (Gen-DEPOT, Katy, TX, USA). Cell lysates were vortexed and centrifuged at 13,000 rpm for 15 min at 4 °C. Protein concentration was determined using the Bradford protein assay kit, and the same amount of protein was separated by SDS-PAGE gel. Then, proteins were transferred to a polyvinylidene fluoride (PVDF) membrane. Further, the membranes were blocked with a blocking solution containing 5% skim milk in Tris-buffered saline containing Tween 20 (TBST) for 1 h and incubated overnight with the primary antibody diluted in 5% skim milk in TBST at 4 °C. Then, the membrane was rinsed with TBST for 30 min and incubated with horseradish peroxidase-conjugated secondary antibodies in a blocking solution for 1 h. All bands were visualized by using an enhanced chemiluminescence (ECL) kit (Pierce, Rockford, IL, USA) under a luminescent image analyzer (Amersham, GE Healthcare, Chicago, IL, USA). The primary antibodies against MMP-1 were obtained from Thermo Fischer Scientific Inc. (NYSE: TMO). Antibodies directed against p-p65, p65, p-p38, p38, p-ERK, ERK, p-c-JUN, and c-JUN were purchased from Cell Signaling Technology Inc. (Beverley, MA, USA). COX-2 and β-Actin antibodies were from Santa Cruz Biotechnology (Santa Cruz, CA, USA), while TNF-α antibodies were procured from Novus Biologicals, Inc. (Centennial, CO, USA).

[1] = test system: p-ERK, p-p38, JNK MAPK, p-NF-κB p65, p-c-JUN; assay: Western blot of MAPK, NF-κB and c-JUN signaling in UVB-induced 3T3 fibroblasts; type: cell-based, mouse; details: 3T3 cells; for phosphorylation level of JNK MAPK / phosphorylation levels of ERK and p38 MAPKs: PDT after UVB treatment
From the text: One of the major factors of UVB-induced skin aging is inflammation-mediated skin aging. In UVB-induced skin photoaging, increased intracellular ROS can promote MMP production by activating the MAPK, AP-1, and NF-κB pathways. […] Ce6-diPEG-curcumin-PDT and Ce6-propane-curcumin-PDT lowered the phosphorylation levels of ERK and p38 MAPKs but not those of JNK MAPK.
Figure 9 Effect of Ce6-curcumin derivatives-PDT on MAPK, NF-κB and c-JUN signaling proteins. Protein expressions of p-p38, p-38, p-ERK, ERK, p-c-JUN, c-JUN, p-p65 and p65 in the UVB-induced murine 3T3 fibroblast cell line after Ce6-diPEG-curcumin (150 and 200 μΜ) and Ce6-propane-curcumin (75 and 100 μΜ)-PDT treatment. Representative bars are expressed as mean only.
as §1

[2] = Ex vivo fluorescence imaging and biodistribution in ICR mice; details: 2.5 mg/kg IV, 3 h post-injection
Procedure: To confirm the organ-specific signaling intensities of different Ce6-curcumin derivatives, we measured ex-vivo FLI in different organs of ICR mice after 3 h of intravenous drug administration. The drug interval time of 3 h before light irradiation in PDT for Ce6-curcumin derivatives can be explained by the pharmacokinetics and imaging study of Ce6 provided in Figures S1 and S2. Three hours after IV injection of 2.5 mg/kg of Ce6- hexane-curcumin, Ce6-propane-curcumin, and Ce6-diPEG-curcumin, ex-vivo images were obtained. […] Furthermore, the fluorescence intensity of Ce6-curcumin derivatives was highest in organs with a larger blood supply, including the liver and lungs.
(B) Biodistribution of the three Ce6-curcumin derivatives in the organ lysates after 3 h post-injection. The quantitation of fluorescence signals of Ce6 derivatives has been represented as a bar. Data were represented as mean ± SD from at least three independent experiments and were analyzed by one-way ANOVA with Tukey’s post hoc test: * p < 0.01, compared with vehicle-treated control of the spleen, ^# p < 0.01, compared with vehicle-treated control of the lungs, ^& p < 0.01, compared with vehicle-treated control of the liver.
Biodistribution analysis for Ce6 and Ce6-curcumin derivatives was calculated by measuring tissue fluorescence. […] The fluorescence intensity was normalized to the tissue weight.

[3] = test system: collagen synthesis in Hs68 cells; assay: Sircol collagen assay in UVB-irradiated Hs68 cells; type: cell-based, human; details: 30–40 nM, UVB 200 mJ/cm^2, LED irradiated
Procedure: The amount of collagen was measured through the Sircol collagen assay kit (Figure 8).
Each scale value is shown as the mean only.
Following this, 1 mL Sirius red dye, an anionic dye that reacts specifically with the basic side chain groups of collagens under the assay conditions, was added to 300 µL of cell culture medium supernatant and incubated with gentle rotation for 30 min at room temperature. After centrifugation, the pellet was washed with ice-cold acid-salt wash reagent released in alkali reagent, and the absorbance at 570 nm was measured using an ELISA reader (Sunrise, Tecan, Männedorf, Switzerland). The amount of collagen was calculated based on a standard curve obtained with the standard bovine type I collagen supplied with the kit.

ex vivo fluorescence signal in organs [2] | SMILES | IC50 (BALB/c 3T3 cells) | expression levels of iNOS and COX-2 (COX-2, TNF-α, iNOS; 200 nM, PDT, UVB-induced 3T3) | UVB-upregulated COX-2 and TNF-α protein levels (COX-2, TNF-α, iNOS; 150 and 200 μΜ) | UVB-induced increases in p-NF-κB p65 and p-c-JUN ([1]; 150 and 200 μM followed by laser irradiation) | phosphorylation level of JNK MAPK [1] | phosphorylation levels of ERK and p38 MAPKs [1] | UVB-upregulated COX-2 and TNF-α protein levels (COX-2, TNF-α, iNOS; 75 and 100 μΜ) | UVB-induced increases in p-NF-κB p65 and p-c-JUN ([1]; 75 and 100 μM followed by laser irradiation) | collagen synthesis [3]
highest fluorescence | C=Cc1c(C)c2cc3nc(c(CC(=O)OC)c4[nH]c(cc5nc(cc1[nH]2)C(C)=C5CC)c(C)c4C(=O)NCCCOCCOCCOCCCNC(=O)CCCC(=O)Oc1ccc(/C=C/C(=O)CC(=O)/C=C/c2ccc(O)c(OC)c2)cc1OC)C(CCC(=O)OC)C3C (stereo not drawn) [Ce6-diPEG-curcumin] | 800 nM | below those seen in the normal control | downregulated these increases | greatly reversed this trend | not | lowered |  |  | 
 | C=Cc1c(C)c2cc3nc(c(CC(=O)OC)c4[nH]c(cc5nc(cc1[nH]2)C(C)=C5CC)c(C)c4C(=O)NCCCNC(=O)CCCC(=O)Oc1ccc(/C=C/C(=O)CC(=O)/C=C/c2ccc(O)c(OC)c2)cc1OC)C(CCC(=O)OC)C3C (stereo not drawn) [Ce6-propane-curcumin] |  |  |  |  | not | lowered | downregulated these increases | greatly reversed this trend | increase in collagen synthesis in a dose-dependent manner
